We go through twelve compounds from publication PMC9151520 (Archives of Toxicology, 2022).

Values joined by “and” are separate entries in the source; they are usually repeats but may differ in a detail not shown here. Equal entries are not always repeated. Where two headings read alike, the source gives them in different places.

In series [1] the test system is p53 signaling (p53RE-bla HCT-116 cells). The experiment in a line: cells. Set-up: efficacy: unit not given here. It is filed as cell-based. The following applies: for EC50 / Emax: Homo sapiens; for EC50: HCT-116; for Emax: HCT-116, read-out: efficacy.
The conditions of series [2]: rat.
Series [3] has as its system p53 signaling (p53RE-bla HCT-116 cells). Description: cells. Particulars: Homo sapiens.
Series [4] shares this test system. Description: cells. It is filed as cell-based.
In series [5] the test system is p53RE-bla HCT-116 cells.
Series [6] has as its system p53 signaling (p53RE-bla HCT-116 cells). Description: cells. The format is cell-based. The following applies: for Emax / EC50: Homo sapiens.
The test system is the same in series [7]. Description: cells. Particulars: Homo sapiens. This is another data set of the same source.
For series [8] the test system is unchanged.
The test system is the same in series [9]. The source holds these as a separate data set.
The nature of the next series: in vitro. The following applies: male, Sprague Dawley, rat, microsomes, pH 7.4.
Series [10] deals with p53RE-bla HCT-116 cells. Description: cells. Particulars: Homo sapiens.
The mark [11] stands for this setting: HCT-116, read-out: p53 activation EC50, HLM.
Setting [12] is: read-out: p53 activation EC50, RLM.
The mark [13] stands for this setting: HCT-116, read-out: p53 activation EC50, primary screening.
[14] abbreviates: HCT-116, read-out: p53 activation efficacy, primary screening.
[15] abbreviates: HCT-116, read-out: p53 activation EC50, cherry pick confirmation.
[16] abbreviates: HCT-116, read-out: p53 activation efficacy, cherry pick confirmation.

Compound `Cc1cccc2c1cc1ccc3cccc4ccc2c1c34` [7-Methylbenzo(a)pyrene] had an EC50 in [1] of 27.5 µM. In [2], the “Depletion after 16 h of incubation with cells” value (shortened to “Depletion after 16 h”) stood at 52.01 ± 27.41%. In [3] (HCT-116), this compound returned an EC50 of 34.3 µM. The EC50 in series [4] (Homo sapiens, HCT-116, 0.5 h) turned out to be 32.9 µM. Moreover, in the series on p53RE-bla HCT-116 cells [5], the “Viability EC50, HLM” value was “inactive”; the “Viability EC50, No MS” value is “inactive”; the “Viability EC50, RLM” value was “inactive”; the “Viability Efficacy, HLM” value is “inactive”. Further, in the series with p53RE-bla HCT-116 cells [5], the “Viability Efficacy, No MS” value was “inactive” and the “Viability Efficacy, RLM” value is “inactive”. Further, the “p53 activation Efficacy, No MS” value in [6] stood at 64.7403%. Further, the Emax in [6] (HCT-116, read-out: p53 activation Efficacy, No MS) was 59.2%.
For the compound `COP(=S)(OC)SCn1nnc2ccccc2c1=O` [Azinphos-methyl], the efficacy in series [1] is recorded as 7.29 ± 2.15 ( 104.64 ± 29.38 ) %; in series [4], 6.6 ± 0.91 ( 57.05 ± 12.27 ) %. Besides, the EC50 in [1] amounted to 7.29 µM; in [3] (HCT-116), 11.6 µM; in series [4] (Homo sapiens, HCT-116, 0.5 h) it was 6.6 µM; in series [7] (HCT-116, read-out: p53 activation EC50), 14.9 µM. Further, in series [2], the “Depletion after 16 h” value is listed as 94.04 ± 0.16%. For the same compound, in the series on p53RE-bla HCT-116 cells [5], the “Viability EC50” value is “inactive”. In the series with p53RE-bla HCT-116 cells [5], the Viability efficacy result was “inactive”. Besides, the “p53 activation EC50” value in series [6] and in series [9] was “inactive” throughout. The p53 activation efficacy entry is “inactive” in series [6]; 77.2775 and 58.65 in series [8].
Take `CCOP(=O)(NC(C)C)Oc1ccc(SC)c(C)c1` (stereo not shown) [Fenamiphos]: in series [1], the efficacy was 1.34 ± 0.33 ( 75.12 ± 11.54 ) % and the EC50 was 1.34 µM. The “Depletion after 16 h” value in series [2] is given as 99.41 ± 0.07%. The midpoint of the response in series [3] (HCT-116), the EC50, lay at 1.5 µM. The EC50 in series [3] (HCT-116, read-out: p53 activation EC50, RLM) was 1.55 µM. Also, in [4], the efficacy was 0.37 ± 0.15 ( 33.54 ± 3.04 ) %. Further, in series [4] (Homo sapiens, HCT-116, 0.5 h), the EC50 is 0.37 µM. In addition, in series [7] (setting [11]), the EC50 worked out at 1.49 µM. Also, in the series with p53RE-bla HCT-116 cells [5], the “Viability EC50, HLM” value was “inactive”; the “Viability EC50, No MS” value is “inactive”; the “Viability EC50, RLM” value is “inactive”; the “Viability Efficacy, HLM” value was “inactive”. Further, in the series on p53RE-bla HCT-116 cells [5], the “Viability Efficacy, No MS” value was “inactive” and the “Viability Efficacy, RLM” value was “inactive”. Further, in series [6], the “p53 activation EC50, No MS” value is “inactive” and the “p53 activation Efficacy, No MS” value was “inactive”. In series [8] (setting [12]), the EC50 came out at 0.958 µM. For the same compound, the “p53 activation EC50, HLM” value in [9] was “inactive”.
In “in vitro”, `CCOP(=O)(SC(C)CC)N1CCSC1=O` (stereo not shown) [Fosthiazate] displayed a half-life of 15.2 ± 1.93 min.
With `COP(=S)(OC)Oc1cc(Cl)c(I)cc1Cl` [Iodenphos], the EC50 is 37 µM in series [1]; 32.2 µM in series [3] (HCT-116); 24.2 µM in series [4] (Homo sapiens, HCT-116, 0.5 h); 26.6 µM in series [8] (read-out: p53 activation EC50). In addition, in series [2], the “Depletion after 16 h” value is recorded as 99.99 ± 0%. Besides, the Emax in [3] (HCT-116, read-out: efficacy) was 84.9%; in [7] (HCT-116, read-out: p53 activation efficacy), 54.2%. In addition, in the series with p53RE-bla HCT-116 cells [5], the “Viability EC50” value was “inactive”. For the same compound, the Viability efficacy result in the series on p53RE-bla HCT-116 cells [5] is “inactive”. Moreover, the “p53 activation EC50” value in series [6] and in series [9] was “inactive” throughout. The p53 activation efficacy entry in series [6] is “inactive”; in series [8], 81.587 and 107.715.
As to `CCOP(=S)(OCC)Oc1nc(Cl)n(C(C)C)n1` [Isazofos], the “Depletion after 16 h” value in series [2] is on record as 97.88 ± 0.31%. Besides, the “Viability EC50” value with p53RE-bla HCT-116 cells [5] was “inactive”. Further, the Viability efficacy result with p53RE-bla HCT-116 cells [5] is “inactive”. Also, the “p53 activation EC50” value in series [6] and in series [9] was “inactive” throughout. In addition, the p53 activation efficacy result in [6] is “inactive”; in series [8] it was 50.5712 and 50.6263. The EC50 in series [8] is 8.27 µM; in series [9] (read-out: p53 activation EC50), 1.62 µM.
In the case of `CC1CCC(C(C)C)C(OC(=O)c2ccccc2N)C1` (stereo not shown) [Menthyl anthranilate], the EC50 in the series on p53RE-bla HCT-116 cells [10] (HCT-116, read-out: Viability EC50, cherry pick confirmation) came out at 33.8 µM; in the series on p53RE-bla HCT-116 cells [10] (HCT-116, read-out: Viability EC50, primary screening), 36 µM; in [3] (setting [13]), 34.8 µM; in [6] (setting [15]) it was 0.837 µM; in series [6] (setting [13]) it was 48.8 µM. Also, the values for the Emax in series [3] (setting [14]), in [6] (setting [16]) and in series [6] (setting [14]) were 70.8%, 40.4% and 62.5%, respectively. Besides, the “Viability EC50, cherry pick confirmation” value in the series on p53RE-bla HCT-116 cells [5] is “inactive”. Besides, the “Viability EC50, primary screening” value with p53RE-bla HCT-116 cells [5] is “inactive”. Moreover, the “p53 activation EC50, cherry pick confirmation” value in series [8] and in [9] was “inactive” each time. Also, the “p53 activation efficacy, cherry pick confirmation” value in [8] and in series [9] was “inactive” each time. Moreover, the “p53 activation EC50, primary screening” value in series [9] was “inactive”. In series [9], the “p53 activation efficacy, primary screening” value is “inactive”.
For the compound `c1ccc2c(c1)[nH]c1cnccc12` [Norharman], the EC50 was 20 µM in series [1]; 28.1 µM in [3] (HCT-116); 29.6 µM in [3] (setting [15]); 32.6 µM in series [3] (setting [13]); “Inactive” in series [4]; 41.4 µM in [6] (setting [13]). In addition, the Emax in [1] is 76.4%; in series [3] (HCT-116, read-out: efficacy), 73.8%; in [3] (setting [16]) it was 71%. For the same compound, in [2], the “Depletion after 16 h” value amounted to 85.03 ± 0.42%. Besides, in the series with p53RE-bla HCT-116 cells [5], the “Viability EC50, cherry pick confirmation” value is “inactive”. In addition, the “Viability EC50, primary screening” value in the series on p53RE-bla HCT-116 cells [5] is “inactive”. In the series on p53RE-bla HCT-116 cells [5], the “Viability efficacy, cherry pick confirmation” value is “inactive”. Moreover, the “Viability efficacy, primary screening” value in the series on p53RE-bla HCT-116 cells [5] was “inactive”. Besides, the “p53 activation EC50, cherry pick confirmation” value in series [6] and in [9] was “inactive” in each case. The “p53 activation efficacy, cherry pick confirmation” value in series [6] and in series [9] was “inactive” each time. Further, the “p53 activation EC50, primary screening” value in series [9] is “inactive”. Also, the “p53 activation efficacy, primary screening” value in series [9] was “inactive”.
As to `CCOP(=S)(OCC)Oc1ccc([N+](=O)[O-])cc1` [Parathion], in [1], the midpoint of the response, the EC50, lay at 1.45 µM and the Emax is 35.6%. The “Depletion after 16 h” value in series [2] is recorded as 98.86 ± 0.34%. This compound also had an EC50 in series [3] (HCT-116) of 1.11 µM. Besides, in series [3] (HCT-116, read-out: efficacy), the Emax was 36.3%. Also, in series [4], the EC50 entry was “Inactive”. Further, in [7] (setting [11]), the EC50 was 1.2 µM. In the series on p53RE-bla HCT-116 cells [5], the “Viability EC50, HLM” value is “inactive”; the “Viability EC50, No MS” value is “inactive”; the “Viability EC50, RLM” value is “inactive”; the “Viability Efficacy, HLM” value is “inactive”. Besides, in the series on p53RE-bla HCT-116 cells [5], the “Viability Efficacy, No MS” value is “inactive” and the “Viability Efficacy, RLM” value was “inactive”. In [6], the “p53 activation EC50, No MS” value was “inactive” and the “p53 activation Efficacy, No MS” value was “inactive”. Further, in series [9], the “p53 activation EC50, HLM” value was “inactive”.
For the compound `CCOP(=S)(OCC)SCSCC` [Phorate], the half-life in the series “in vitro” amounted to 104 ± 22.4 min.
As for `Cc1nc(N(C)C)nc(OC(=O)N(C)C)c1C` [Pirimicarb], in the series “in vitro”, the half-life stood at 11.7 ± 0.52 min.
For the compound `CCOP(=S)(OCC)Oc1cc(C)nc(N(CC)CC)n1` [Pirimiphos-ethyl], the “Depletion after 16 h” value in series [2] is given as 95.16 ± 0.46%. Moreover, in the series with p53RE-bla HCT-116 cells [5], the “Viability EC50, HLM” value is “inactive”; the “Viability EC50, No MS” value was “inactive”; the “Viability EC50, RLM” value was “inactive”; the “Viability Efficacy, HLM” value was “inactive”. For the same compound, in the series with p53RE-bla HCT-116 cells [5], the “Viability Efficacy, No MS” value is “inactive” and the “Viability Efficacy, RLM” value is “inactive”. Moreover, in series [6], the “p53 activation EC50, No MS” value was “inactive” and the “p53 activation Efficacy, No MS” value is “inactive”. Moreover, in series [8], the EC50 came out at 2.07 µM. Besides, the EC50 in series [8] (setting [12]) was 1.91 µM and 3.44 µM. Besides, the “p53 activation EC50, HLM” value in series [9] was “inactive”. The EC50 in [9] (read-out: p53 activation EC50, HLM) stood at 3.88 µM.

The term EC50 denotes the concentration at which the effect is half-maximal. Usually half-life stands for the time in which the quantity being followed falls by half.
